Assay results reported in patent US6797807B1, “Compounds and methods for cancer therapy” (Adherex Technologies, Inc., priority 1997, dated 2004).

What was measured:
Adult rats = experiment: Miles assay for vascular permeability (Evans blue); type: in vivo; details: rat, 100 μg/ml peptide subdermal, OD at 620 nm; compared with PBS and the N-acetyl/C-amide peptides; FIG. 6, FIG. 8
Protocol: The ability of an agent to modulate cell adhesion may generally be evaluated in vivo by assessing the effect on vascular permeability utilizing the Miles assay (McClure et al., J. Pharmacological & Toxicological Methods 32:49-52, 1994). Briefly, a candidate modulating agent may be dissolved in phosphate buffered saline (PBS) at a concentration of 100 μg/ml. Adult rats may be given 100 μl subdermal injections of each peptide solution into their shaved backs, followed 15 minutes later by a single 250 μl injection of 1% Evans blue dissolved in PBS into their tail veins. The subdermal injection sites may be visually monitored for the appearance of blue dye. Once the dye appears (about 15 minutes after injection), each subdermal injection site may be excised, weighed, and placed in 1 ml dimethylformamide for 24 hours to extract the dye. The optical density of the dye extracts may then be determined at 620 nm. In general, the injection of 0.1 ml of modulating agent (at a concentration of 0.1 mg/ml) into the backs of rats causes an increase of dye accumulation at the injection sites of at least 50%, as compared to dye accumulation at sites into which PBS has been injected.
The ability of cyclic and linear peptides to increase vascular permeability was assessed utilizing the Miles assay (McClure et al., J. Pharmacological & Toxicological Meth. 32:49-521994). The peptides were dissolved in phosphate buffered saline (PBS) at a concentration of 100 μg/ml. Adult rats were given 100 μl subdermal injections of each peptide solution into their shaved backs, followed 15 minutes later by a single 250 μl injection of 1% Evans blue dissolved in PBS into their tail veins. The subdermal injection sites were visually monitored for the appearance of blue dye. Once the dye appeared (15 minutes after injection), each subdermal injection site was excised, weighed, and placed in 1 ml dimethylformamide for 24 hours to extract the dye. The optical density of the dye extracts was determined at 620 nm. […]

[1] = tested on: Human neutrophils (polymorphonuclear leukocytes, PMN) on HUVEC monolayers; experiment: Neutrophil (PMN) transendothelial migration across HUVEC monolayers with fMLP; type: cell-based; details: 10^-7 M fMLP, vs control with fMLP, FIGS. 10-11
Protocol: A further assay for evaluating modulating agent activity involves determining an effect of a candidate agent on neutrophil migration on endothelial cells. Within such assays, endothelial cells (e.g., HUVEC) may be harvested and cultured using standard techniques. Cells are grown to confluence on 8.0 μm pore cell culture inserts (Falcon, Franklin Lake, N.J.) essentially as described by Ohno et al., Inflammation 21(3):313-24, 1997. Radiolabeled human neutrophils (polymorphonuclear leukocytes, PMN) are added to the apical surface of HUVEC monolayers and allowed to migrate. Migration assays are generally performed in the presence of 10^−7 M N-formyl-methionyl-leucyl-phenylalanine (fMLP), a chemoattractant that causes the leukocytes to undergo diapedesis. PMN migration may be quantitated as follows: [formula]
Human umbilical vein endothelial cells (HUVEC) were harvested from umbilical cords by 0.2% collagenase treatment essentially as described by Yoshida et al., Am. […]
For neutrophil diapedesis experiments, HUVEC were grown to confluence on 8.0 μm pore cell culture inserts (Falcon, Franklin Lake, N.J.) essentially as described by Ohno et al., inflammation 21(3):313-24, 1997. […] The cells were then washed twice with cold phosphate-buffered saline (PBS), spun at 250 g for 8 minutes to remove unincorporated radioactivity and resuspended in PBS. […]
PMN migration was quantitated as follows: [formula]

HUVEC = experiment: Immunofluorescence analysis of occludin in HUVEC; type: cell-based, human; details: 200 μg/mL peptide vs vehicle; FIG. 12B
Protocol: For immunofluorescence analysis of occludin, HUVEC grown on glass coverslips were treated with vehicle (FIG. 12A) or 200 μg/mL peptide 76 (FIG. 12B). Cells were fixed with methanol and acetone and stained for occludin (Kevil et al., Microcirculation 5:197-210, 1998). Immunofluorescent staining was performed with anti-occludin polyclonal antibody (Zymed, San Francisco, Calif. used at a concentration of 4 μg/ml) and Cy3-conjugated goat anti-rabbit secondary Ab (Jackson Labs, Westgrove, Pa., used at a 1:250 dilution), and analyzed by fluorescence microscope. […] The photographs shown are representative of at least 20 different fields observed in each experiment and of three independent experiments. Bar=25 μm.

## H-CLYHYC-OH (also: cyclic, kind not given here) [Peptide 5]
Adult rats
  optical densities of dimethylformamide dye extracts from excised injection sites: more dye was extracted
[1]
  fMLP-stimulated neutrophil transendothelial migration: increase fMLP-stimulated transendothelial migration
HUVEC
  occludin staining and intercellular gaps in HUVEC: gaps between adjacent endothelial cells and the lack of junctional proteins at these gaps
